Experimental findings from patent publication US9278982B2, “Targeting human thymidylate kinase induces DNA repair toxicity in malignant tumor cells” (NATIONAL YANG-MING UNIVERSITY, priority 2010, dated 2016) are described below.

One series relates to MDA-MB231 cells. Nature of the series: Repair of doxorubicin-induced DNA lesions (γH2AX, Rad51, XRCC1 foci staining). Format: cell-based, human. As to the method: FIG. 14. Effect of YMU1 on genomic toxicity and DNA repair. […] After overnight, cells were exposed to doxorubicin and recovered. […]
For γH2AX, Rad51 and XRCC1 staining, cells were fixed with 4% paraformaldehyde for 30 min at room temperature and were incubated with TBS (50 mM Tris-HCl, pH 7.4, 150 mM NaCl) plus 0.3% Triton X-100 for 5 min. The coverslips were blocked with MAXblock™ (Active Motif) for 1 h at 37° C., followed by staining with primary antibodies: anti-γH2AX monoclonal antibody (1:1000), anti-Rad51 polyclonal antibody (1:500) or anti-XRCC1 monoclonal antibody (1:500) overnight at 4° C. After extensive washing, cells were stained with secondary antibodies and Hoechst 33342 for 1 h at room temperature. After mounting, cells were analyzed and photographed with a Carl Zeiss fluorescence microscope equipped with AxioCam digital camera and Axio Vision Rel. 4.8 imaging software.

Another series deals with MCF-10A. Nature of the series: Doxorubicin sensitization, MTS viability assay. Type of series: cell-based, human. The settings on record: doxorubicin sensitivity, YMU1 vs vehicle. The method, then:
(§1) FIG. 16. In vitro and in vivo effect of YMU1 on doxorubicin sensitization. (A) A panel of cell lines were pre-treated with vehicle, YMU1 (compound 21), D6 (ethyl 4-(2-chloroacetyl)piperazine-1-carboxylate) or D7 (compound 28) for 3 days and were exposed to different concentration of doxorubicin for 4 h. […] The enhancement (fold) of doxorubicin sensitivity in each cell line was calculated. Data represent mean±s.d., n=3; each experiment was quadruplex. Inset indicates the IC50 value of doxorubicin in various cell lines. […] Following overnight culture, cells were refreshed with growth medium. After 14 days of culture, colonies were fixed, stained by crystal violet and counted. (C) HCT-116 p53^−/− cells were subcutaneously implanted in the right flank of Balb/c nude mice (each experimental group n=8). Arrow indicated the time of stopping drug treatment. The tumor volume was estimated as described in Methods of the Invention section. (D) After 2 weeks recovered from treatment, mice were sacrificed for tumor weight measurement. Data represent mean±s.e.m; **, P<0.01 by a two-tailed Student's t-test. (E) Ki 67 proliferation marker staining of tumor shown in left panel. Scale bar, 50 μm. (F) Model of doxorubicin sensitization by YMU1 in malignant cancer cells. Both R2/R1 and TMPK are recruited to the site of doxorubicin-induced double-strand breaks, where dATP, dGTP, dCTP, dTTP and dUTP are site-specific synthesized. Inhibition of TMPK decreases dTTP formation at DNA damage sites, causing futile DNA repair due to dUTP incorporation.
(§2) Next, various human cancer cell lines were treated with YMU1, D6 or D7 for 72 h to test the potential of TMPK inhibitor in doxorubicin sensitization. After exposure to different concentration of doxorubicin for 4 h, cells were refreshed for viability analysis after 2 days and the IC50 value for doxorubicin in each of the cell lines was determined (FIG. 16A and Table 2).
(§3) Cells plated into a 96-well plate (10^3 cells/well) were treated and cell viability was measured by MTS assay (Promega) (Cory et al., 1991). An annexin V-fluorescein isothiocyanate (FITC) apoptosis kit (Calbiochem) was used to detect apoptosis. The cell cycle analysis was performed by staining cells with propidium iodide (PI) for fluorescence-activated cell sorter (FACS) analysis with CellQuest software.

The subject of the next series is HCC1037. The series is described as follows: Doxorubicin sensitization, MTS viability assay. The note with it: doxorubicin sensitivity, YMU1 vs vehicle. Format: cell-based, human. As to the method:
as §1, §2, §3

The next series relates to H184B5F5/M10. Nature of the series: Doxorubicin sensitization, MTS viability assay. Type of series: cell-based, human. The note with it: doxorubicin sensitivity, YMU1 vs vehicle. The method, then: as §1, §2, §3
On the technique in general: Formazan colour is commonly taken as a measure of viable cells.

For the next series, the system named is U2OS. The series is described as follows: Doxorubicin sensitization, MTS viability assay. Format: cell-based, human. The settings on record: doxorubicin sensitivity, YMU1 vs vehicle. The method, then:
as §1, §2, §3

In a further series the test system is IMR-90. Nature of the series: Doxorubicin sensitization, MTS viability assay. The note with it: doxorubicin sensitivity, YMU1 vs vehicle. Format: cell-based, human. As to the method: as §1, §2, §3
A further series deals with HREC. Nature of the series: Doxorubicin sensitization, MTS viability assay. Type of series: cell-based, human. The note with it: doxorubicin sensitivity, YMU1 vs vehicle. As to the method: as §1, §2, §3
The next series concerns H1299. The series is described as follows: Doxorubicin sensitization, MTS viability assay. Format: cell-based, human. The note with it: doxorubicin sensitivity, YMU1 vs vehicle. The method, then: as §1, §2, §3
The subject of a further series is HCT-116p53−/−. Nature of the series: Doxorubicin sensitization, MTS viability assay. Format: cell-based, human. The note with it: doxorubicin sensitivity, YMU1 vs vehicle. As to the method: as §1, §2, §3
For another series, the system named is HT-29. Nature of the series: Doxorubicin sensitization, MTS viability assay. Format: cell-based, human. The note with it: doxorubicin sensitivity, YMU1 vs vehicle. The method, then: as §1, §2, §3
A further series deals with Capan1. Nature of the series: Doxorubicin sensitization, MTS viability assay. Format: cell-based, human. The note with it: doxorubicin sensitivity, YMU1 vs vehicle. As to the method: as §1, §2, §3
The test system of another series is MDA-MB468. The series is described as follows: Doxorubicin sensitization, MTS viability assay. Format: cell-based, human. The settings on record: doxorubicin sensitivity, YMU1 vs vehicle. The method, then: as §1, §2, §3
Another series concerns HCT-116p53+/+. The series is described as follows: Doxorubicin sensitization, MTS viability assay. Type of series: cell-based, human. The settings on record: doxorubicin sensitivity, YMU1 vs vehicle. As to the method: as §1, §2, §3
A further series relates to MDA-MB231. The series is described as follows: Doxorubicin sensitization, MTS viability assay. Type of series: cell-based, human. As to the method:
as §1, §2, §3

The next series concerns CL-1-0. Nature of the series: Doxorubicin sensitization, MTS viability assay. The note with it: doxorubicin sensitivity, YMU1 vs vehicle. Format: cell-based, human. As to the method:
as §1, §2, §3

In a further series the test system is SaoS2. The series is described as follows: Doxorubicin sensitization, MTS viability assay. Type of series: cell-based, human. The note with it: doxorubicin sensitivity, YMU1 vs vehicle. As to the method: as §1, §2, §3
In another series the test system is HMEC. The series is described as follows: Doxorubicin sensitization, MTS viability assay. Type of series: cell-based, human. The note with it: doxorubicin sensitivity, YMU1 vs vehicle. The method, then: as §1, §2, §3
Series [1] has as its system H184B5F5/M10, MCF-10A, MCF-7 and HCT-116 p53−/− cells.
Procedure: (B) H184B5F5/M10 cells were seeded onto 100 mm-dish at 5,000 cells/dish. MCF-10A, MCF-7 and HCT-116 p53^−/− cells were seeded onto 6 well plate at 600 cells/well. Following overnight culture, cells were treated with various concentration of YMU1 or FdUrd thrice a week. After 14 days colonies were fixed, stained by crystal violet.
We also compared the effect of YMU1 and FdUrd on cell viability of non-tumorigenic mammary cycling cells, H184B5F5/M10 and MCF-10A and tumor lines, MCF-7 and HCT-116 p53^−/− cells.
After 14 days, colonies were fixed and stained by crystal violet and counted.
The next series addresses T1, TMPK (Homo sapiens, UniProt P23919).
T1 sequence (P23919 1-212): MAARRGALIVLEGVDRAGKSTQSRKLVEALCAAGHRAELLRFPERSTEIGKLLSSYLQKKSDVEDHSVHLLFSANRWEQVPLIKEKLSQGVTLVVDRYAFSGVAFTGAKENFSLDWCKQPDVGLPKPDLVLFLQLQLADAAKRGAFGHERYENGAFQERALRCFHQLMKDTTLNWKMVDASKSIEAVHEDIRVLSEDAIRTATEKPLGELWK
The series is described as follows: In vitro TMPK inhibitory activity of TMPK inhibitor derivatives (inhibition yield). The arrangement: GST (N, cleaved yes); made in house; host or cells: E. coli JM109 (pGEX-2T-hTMPK), inferred. The settings on record: 2 μM; n=3 or 6; read-out: inhibition yield, normalized to compound 21 (YMU1) = 100%. Format: biochemical. From the text:
Chemical structures of the different TMPK inhibitor derivatives tested for in vitro TMPK inhibitory activity and in vivo doxorubicin sensitization activity (in MDA-MB231 cells) are depicted below.

Setting [2] is: YMU1 2 μM 72 h, doxorubicin exposure and recovery.

The structures appear in SMILES notation.

A word on the inhibition: it is the drop in the measured response relative to a control, in per cent. With `CCOC(=O)N1CCN(C(=O)Cn2sc3nc(C)cc(C)c3c2=O)CC1` [compound 21, Ethyl 4-(2-(4,6-dimethyl-3-oxoisothiazolo[5,4-b]pyridin-2(3H)-yl)acetyl) piperazine-1-carboxylate], the Rad51 foci result with MDA-MB231 cells (setting [2]) is recorded as “persistent Rad51 foci”. In the series with MDA-MB231 cells (setting [2]), the XRCC1 foci formation result was “increase in XRCC1 foci formation”. Besides, the “numbers of DNA lesions formation (γH2AX focus staining)” value in the series with MDA-MB231 cells (YMU1 2 μM 72 h pre-treatment, doxorubicin 0.1 μM) was “did not affect numbers of DNA lesions formation”. Besides, the “cells still γH2AX-positive” value in the series on MDA-MB231 cells (YMU1 2 μM 72 h pretreatment, recovery 48 h post-doxorubicin (0.1 μM) exposure) is reported as “over 70%”. Further, the Enhancement fold was 1.2 fold with MCF-10A; 0.8 fold with HCC1037; 1.7 fold in the series with H184B5F5/M10; 4.0 fold in the series on U2OS; 1.0 fold with IMR-90; 1.0 fold with HREC. Moreover, the Enhancement fold with H1299 was determined as 12.2 fold; in the series with HCT-116p53−/− it was 6.8 fold; in the series on HT-29 it was 3.4 fold; with Capan1, 1.0 fold; with MDA-MB468 it was 27.8 fold; with HCT-116p53+/+, 6.3 fold. Further, the Enhancement fold in the series with MDA-MB231 (MDA-MB231, doxorubicin sensitivity, YMU1 vs vehicle) worked out at 31.0 fold; with CL-1-0, 6.0 fold; in the series with SaoS2 it was 35.1 fold; with HMEC, 1.0 fold. Further, in the series with MDA-MB231 (MDA-MB231 cell treatment, compound at 2 μM), the “enhancement on doxorubicin sensitization” value is listed as 30 fold. In addition, the “death of cells in colony assay” value in [1] is on record as “did not”. For the same compound, on TMPK, the inhibition at 2 µM stood at 100%.
